Laboratory results from PubChem BioAssay (NCI).
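Exposure lasted 48 hours, with cells grown in 96-well plates and compounds tested at five concentrations. TGI: concentration producing complete growth inhibition.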

Legend:
Test in all cases: NCI-60 cell line screen, 48 h
[1] = system: CCRF-CEM leukemia
[2] = system: HCT-15 colon
[3] = system: MDA-MB-435
[4] = system: NCI/ADR-RES ovarian
[5] = system: RPMI-8226 leukemia
[6] = system: SK-MEL-2 melanoma
[7] = system: SK-MEL-28 melanoma
[8] = system: SNB-19 CNS
[9] = system: SNB-75 CNS
[10] = system: UACC-257 melanoma

Compound	TGI [1]	TGI [2]	TGI [3]	TGI [4]	TGI [5]	TGI [6]	TGI [7]	TGI [8]	TGI [9]	TGI [10]
O=c1c2ncn(C3CCCCO3)c2n(-c2ccccc2)c(=S)n1-c1ccccc1 (centres undefined)	> 100 µM	> 100 µM	> 100 µM	> 82.6 µM	> 100 µM	> 79.7 µM	> 100 µM	> 69.4 µM	20.7 µM	> 100 µM
O=c1[nH]nc(-c2ccc([N+](=O)[O-])cc2)n1/N=C/c1ccc([N+](=O)[O-])cc1	> 100 µM	> 100 µM	> 100 µM	> 100 µM	> 100 µM	> 100 µM	> 100 µM	> 100 µM	> 100 µM	> 100 µM
CCOP(=O)(CC1CC(O)(CNc2cc(Cl)nc(N)n2)C1)OCC (centres undefined)	> 100 µM	> 100 µM	> 100 µM	> 100 µM	> 100 µM	> 100 µM	> 100 µM		> 100 µM	> 100 µM
COc1ccc(-c2cc(C3CC3)nc(SCC(=O)O)c2C#N)cc1	> 100 µM	> 100 µM	> 100 µM	> 100 µM	> 100 µM	> 100 µM	> 100 µM	> 100 µM	> 100 µM	> 100 µM
CCCN=C1Nc2ccccc2[C@@H]2N(C)c3ccccc3C(C)C[C@]12C (some centres undefined)	62.9 µM	56.4 µM	34 µM	52 µM	41.7 µM	28.1 µM	33.5 µM	44.8 µM	49.8 µM	25.6 µM
CCN(CC)c1ccc(/C=c2\nc(-c3ccccc3)n3c2nc2ccccc23)cc1	11.7 µM	> 100 µM	48.8 µM	26.6 µM	6.3 µM	> 100 µM		> 100 µM		99.3 µM
N#CCN1CCCCCc2ccccc21	> 100 µM	> 100 µM	> 100 µM	> 100 µM	> 100 µM		> 100 µM	> 100 µM	> 100 µM	> 100 µM
N#Cc1nc(C(F)(F)F)oc1N	> 100 µM	> 100 µM	> 100 µM	> 100 µM	> 100 µM	> 100 µM	> 100 µM	> 100 µM	> 100 µM	> 100 µM
Cc1ccc(S(=O)(=O)Nc2nc3ccccc3c(=O)n2C2CCCCC2)cc1	> 100 µM	> 100 µM	> 100 µM	> 100 µM	> 100 µM	> 100 µM	> 100 µM	> 100 µM	> 100 µM	> 100 µM
CN(C)c1ccc(/C=N/n2c(-c3ccccc3)nc3ccccc3c2=O)cc1	> 100 µM	> 100 µM	> 100 µM	> 100 µM	> 100 µM	> 100 µM	> 100 µM	> 100 µM	> 100 µM	> 100 µM
Nc1nc2cc(CNc3ccc(C(=O)O)cc3)ccc2nc1-c1ccccc1	> 100 µM	> 100 µM	> 100 µM	> 100 µM	> 100 µM	> 100 µM	> 100 µM	> 100 µM	> 100 µM	> 100 µM
C\C=C/C=C/C=C/C(=O)O	> 100 µM	> 100 µM			> 100 µM	> 100 µM	> 100 µM	> 100 µM	> 100 µM	> 100 µM
NNC(=O)Cc1cccnc1	> 100 µM	> 100 µM	> 100 µM	> 100 µM	> 100 µM	> 100 µM	> 100 µM	> 100 µM	> 100 µM	> 100 µM
NC(CCl)=NC1CN2CCC1CC2 (centres undefined)	> 100 µM	> 100 µM	> 100 µM	> 100 µM	> 100 µM	> 100 µM	> 100 µM	> 100 µM	> 100 µM	> 100 µM
COc1ccc2c(c1)C1Oc3ccccc3CC1(O)CO2 (centres undefined)	> 100 µM	> 100 µM	> 100 µM	> 100 µM	> 100 µM	> 100 µM			> 100 µM	> 100 µM
O=C1C(Cl)=C(Oc2ccc([N+](=O)[O-])cc2)C(=O)c2c(O)ccc(O)c21	12.9 µM	> 67.6 µM	> 67.8 µM	> 100 µM	> 60.1 µM		> 76.2 µM	> 100 µM	> 100 µM	> 100 µM
O=C1C(=Cc2ccco2)C(=O)C2CCCCC12 (centres undefined)	> 100 µM	> 100 µM	> 100 µM	> 100 µM	> 100 µM	> 100 µM	> 100 µM	> 100 µM	> 100 µM	> 100 µM
O=C1CSC(c2cccc(Cl)c2)N1c1c(O)c(Cl)cc(Br)c1Cl (centres undefined)	44.8 µM	28.3 µM	31.9 µM	> 100 µM	39.4 µM	29 µM	> 100 µM	> 100 µM	> 100 µM	67.4 µM
CCOC(O)C(F)(F)F (centres undefined)	> 100 µM	> 100 µM	> 100 µM	> 100 µM			> 100 µM	> 100 µM	> 100 µM	> 100 µM
Fc1ccc(C2NC(=S)NC3=C2CCOc2c3ccc3ccccc23)cc1 (centres undefined)	> 100 µM	> 100 µM	43.4 µM	76.2 µM	> 100 µM	> 100 µM		> 100 µM	> 100 µM	> 100 µM
N#CN=C1c2ccccc2C(=NC#N)c2cc(CO)ccc21		> 100 µM	80.3 µM	83.6 µM	31 µM	> 100 µM	> 100 µM	> 100 µM	60.7 µM	> 100 µM
CCn1nc(-c2ccccc2)c2c1N(C)c1ccccc1-n1c(-c3ccccc3)nnc1-2	> 100 µM	23.4 µM	> 100 µM	40.3 µM	> 100 µM	32.8 µM	33.1 µM	32.4 µM	15.7 µM	
OCc1c2c(cc3c1CC1(C3)Cc3cc4c(c(CO)c3C1)CCC4)CCC2	25.9 µM	34.6 µM	36.9 µM	37.8 µM	47.5 µM	36.7 µM				23.8 µM

Compound	TGI [1]	TGI [2]	TGI [3]	TGI [4]	TGI [5]	TGI [6]	TGI [7]	TGI [8]	TGI [9]	TGI [10]
C=C(C)[C@@H]1CC[C@]2(CO)CC[C@]3(C)[C@H](CC[C@@H]4[C@@]5(C)CC[C@H](O)C(C)(C)[C@@H]5CC[C@]43C)[C@@H]12	> 100 µM	> 100 µM	57.1 µM	> 100 µM			> 100 µM		28.9 µM	54.9 µM
CN(C)NC1=NS(=O)(=O)c2cc3c(cc2S1)N(N(C)C)C(=O)c1cc2c(cc1N(N(C)C)C3=O)SC(NN(C)C)=NS2(=O)=O	> 10 µM	> 10 µM		> 10 µM	> 10 µM	> 10 µM	> 10 µM	> 10 µM	> 10 µM	> 10 µM
COc1ccccc1C1=C2C(=O)N(C)C(c3ccccc3OC)=C2C(=O)N1C	> 100 µM	> 100 µM	> 100 µM	> 100 µM			> 100 µM	75.4 µM		> 100 µM
CC(C)=NNc1cnnc2ccc([N+](=O)[O-])cc12	> 100 µM	> 100 µM	> 100 µM	> 100 µM	> 100 µM	> 100 µM		> 100 µM	> 100 µM	> 100 µM
C/C=C1\CN2CCC34c5ccccc5N(C)C35OCC4(C(=O)OC)C1CC25 (centres undefined)	> 100 µM	> 100 µM	> 100 µM		> 100 µM	> 100 µM	> 100 µM	> 100 µM	> 100 µM	> 100 µM
Cc1ccc(C2(N3CCCC3)OC(C)(C)c3cccc4cccc2c34)cc1 (centres undefined)	> 100 µM	32.2 µM	28 µM	30.1 µM	71.9 µM	28.2 µM		29.8 µM	26.3 µM	31 µM
O=S(=O)(O)c1ccc2c(N=Nc3ccccc3)c(O)c(S(=O)(=O)O)cc2c1	> 100 µM	> 100 µM	> 100 µM	> 100 µM		> 100 µM	> 100 µM	> 100 µM	> 100 µM	> 100 µM
C/C=C1/CN2[C@@H](C3=C[C@@H]4[C@@H]5N(C3=O)c3ccccc3[C@@]53CCN5C/C(=C/C)[C@@H]4C[C@H]53)C[C@@]34c5ccccc5N5C(=O)CC=C([C@H]1C[C@H]23)[C@H]54	2.94 µM	10.3 µM	14.1 µM	33.6 µM		11.6 µM	3.91 µM	14.7 µM	17.4 µM	2.9 µM
CSc1nc2c(c(=O)n1C)N=C(c1ccc(Cl)cc1)CC(c1ccccc1)N2 (centres undefined)	72.6 µM		> 100 µM	74.1 µM	47.8 µM	29.5 µM	> 100 µM	> 100 µM	37.2 µM	54.8 µM
CC1(C)CC(=O)C2=C(C1)NC(SCC(=O)O)=C(C#N)C2c1ccc(Br)cc1 (centres undefined)	> 100 µM	> 100 µM	> 100 µM	> 100 µM		> 100 µM	> 100 µM	> 100 µM	> 100 µM	> 100 µM
N#Cc1ccc(/C=N/NC(=O)CSCC(=O)N/N=C/c2ccc(C#N)cc2)cc1		> 100 µM	> 100 µM	> 100 µM	> 100 µM	> 100 µM	> 100 µM	> 100 µM	81.9 µM	> 100 µM
Nc1ccccc1/C=C\c1ccccc1	> 100 µM	> 100 µM	> 100 µM	> 100 µM	> 100 µM		> 100 µM	> 100 µM	> 100 µM	> 100 µM
COC(=O)c1c(C)ccc2c(O)c3c(cc12)C(=O)c1c2c(cc(O)c1C3=O)C1(C)OC(C)(O2)C(O)C(N(C)C)C1O (centres undefined)			2.97 µM	> 100 µM		5.65 µM	11.8 µM	7.22 µM	12.7 µM	3.09 µM
Cc1ccc2ccc(=O)oc2c1	> 100 µM		> 100 µM	> 100 µM	> 100 µM	> 100 µM	> 100 µM		> 100 µM	> 100 µM
Cc1ccc(C(=O)Cc2nc3ncccc3[nH]c2=O)cc1	> 100 µM	> 100 µM	39.8 µM	> 100 µM	> 100 µM	> 100 µM	87.4 µM	> 100 µM		> 100 µM
OC12C3C4CC5C(C4[C@@H]1Br)C2[C@@](O)(c1c(F)c(F)c(F)c(F)c1F)C53 (some centres undefined)	> 100 µM	> 100 µM	> 100 µM	85.9 µM		69.2 µM	> 100 µM	> 100 µM		> 100 µM
CCC(C)NC(=S)N/N=C(\C)c1ccccn1 (centres undefined)		> 100 µM	> 100 µM	7.94 µM		> 100 µM	> 100 µM	> 100 µM		
N#CC(c1nc2ccccc2s1)c1nc(Cl)ncc1Br (centres undefined)		> 100 µM	> 100 µM	> 100 µM	81.1 µM		> 100 µM	> 100 µM	71 µM	> 100 µM
O=C1C=C(N2CCCC2)C(=O)c2c(O)ccc(O)c21	5.19 µM	> 10 µM	> 1 µM			> 10 µM	> 10 µM	> 10 µM	> 10 µM	> 10 µM
COc1ccc(/C=C2\Sc3nnc(C)n3N=C2c2cc(F)c(Cl)cc2Cl)cc1OC	> 100 µM	21.9 µM	23.2 µM	35.6 µM	11.1 µM	33.6 µM	49.2 µM	11.8 µM		32.5 µM
CC(=O)N1CC(C)(C)c2c1cc(C)c(O)c2C	> 100 µM	> 100 µM	> 100 µM	> 100 µM	> 100 µM	> 100 µM	> 100 µM	> 100 µM		> 100 µM
CCOC(=O)c1[nH]cnc1/N=N/N(C)N		> 100 µM	> 100 µM	> 100 µM	> 100 µM	> 100 µM	> 100 µM		> 100 µM	> 100 µM
Cc1c(NC(=S)N/N=C\C(=N/NC(=S)Nc2c(C)n(C)n(-c3ccccc3)c2=O)c2ccccc2)c(=O)n(-c2ccccc2)n1C		> 100 µM	> 100 µM	> 100 µM		> 100 µM		> 100 µM	> 100 µM	> 100 µM
